Laboratory results from US8296071B2, “Methods for uniformly treating biological samples with electromagnetic radiation” (Terumo BCT Biotechnologies, LLC, priority 2004, dated 2012).

Experiments:
[1] = tested on: Bovine viral diarrhea virus (BVDV); experiment: Pathogen reduction of BVDV in platelet and plasma-containing fluids (photosensitizer + electromagnetic radiation), TCID50; format: cell-based; details: fixed net radiant energy 3 Joules cm^−2
Text: FIG. 4A provides a bar graph showing the average reduction of BVDV pathogen for fluid samples having two different volumes held in containers having nontransmissive labels and exposed to a fixed net radiant energy. […] FIG. 4B provides a bar graph showing the average reduction of BVDV pathogen for fluid samples having two different volumes held in containers not having nontransmissive labels and exposed to a fixed net radiant energy equal to 3 Joules cm^−2. […] The error bars shown in FIGS. 4A and 4B correspond to standard deviations (1σ) corresponding to six independent measurements at each volume.

[2] = tested on: porcine parvovirus virus (PPV); experiment: Pathogen reduction of PPV in platelet and plasma-containing samples at two agitation rates; details: net radiant energy by Equation V
Protocol: Platelet and plasma-containing fluid samples having volumes selected over the range of about 200 ml to about 400 ml were illuminated in 1 liter fixed volume, partially transparent containers.
Electromagnetic radiation was provided by two banks of six mercury vapor fluorescent lamps (model number XG25T8E; distributed by Ushio Nichia NP-803 phosphor) positioned above and below the fluid containers. This optical geometry defines two photoreactive layers having thicknesses equal to approximately 1 millimeter corresponding to the top and bottom illuminated surfaces of the fluid. […]
Bovine viral diarrhea virus (BVDV), porcine parvovirus virus (PPV), hepatitis A virus (HAV) and S. aureus bacteria were assayed before and after illumination using TCID50 or plating methods to provide quantitative measurements of the extent of pathogen reduction achieved.
The effect of agitation rate on the extent of pathogen reduction achieved upon treatment of fluids with electromagnetic radiation was also studied by varying the agitation rate provided to the sample container during illumination. Platelet and plasma-containing samples were exposed to net radiant energies calculated using Equation V. Samples were mixed during illumination using two different agitation rates: 120 cycles per minute and 20 cycles per minute.

Which “average reduction of BVDV pathogen” value ([1]; about 230 ml sample, containers with nontransmissive labels) does the source give for 7,8-dimethyl-10-ribityl isoalloxazine here?
Its value is “about 2.0 log”.

What about the “average reduction of BVDV pathogen” value ([1]; about 230 ml sample, containers without nontransmissive labels) of the same substance?
Its value is “about 2.3 log”.

And the “average reduction of BVDV pathogen” value ([1]; about 280 ml sample, containers with nontransmissive labels)?
The value was “about 1.4 log”.

What about the “average reduction of BVDV pathogen” value ([1]; about 280 ml sample, containers without nontransmissive labels) of the same substance?
The value was “about 1.9 log”.

What about the “log decrease in the biological activity of PPV pathogens” value ([2]; agitation rate 20 cycles per minute) of the same substance?
The value was 0.72 log.

And the “log decrease in the biological activity of PPV pathogens” value ([2]; agitation rate 120 cycles per minute)?
The value was 4.65 log.
